# Source: patent publication US8063008B2, “Enzymatic production of peracids using perhydrolytic enzymes” (E. I. du Pont de Nemours and Company, priority 2005, dated 2011)
# Where “and” joins values, the source holds several entries; their conditions need not be identical. Equal entries are not always repeated.
# Tests used:
# [1] = Protease-catalyzed perhydrolysis of diacetamide at pH 4.0 (Example 6); assay type: biochemical; conditions: pH 4.0, 500 mM H2O2, 1 mg protease
# Method: (§1) Into a 4-mL glass vial with stir bar was added 1 mg protease (Table 6) in 0.050 mL of 50 mM sodium acetate/acetic acid buffer (pH 4.0), 0.900 mL of an aqueous mixture containing either a) acetamide (278 mM) in 50 mM sodium acetate/acetic acid buffer (pH 4.0) or b) diacetamide (278 mM) in 50 mM sodium acetate/acetic acid buffer (pH 4.0), and 0.052 mL 30% hydrogen peroxide (500 mM final concentration). […] A portion of the filtered reaction samples was diluted 1:10 with dd water and analyzed for hydrogen peroxide, and the remaining portion of the sample was directly analyzed for peracid using the HPLC assay method (Table 7).
# [2] = Protease-catalyzed perhydrolysis of acetamide at pH 6.5 (Example 9); assay type: biochemical; conditions: pH 6.5, 500 mM H2O2, 1 mg protease
# Method: as §1, with “potassium phosphate” for “sodium acetate/acetic acid”, “6.5),” for “4.0),”, “6.5)” for “4.0)”, “10).” for “7).”
# [3] = Protease-catalyzed perhydrolysis of diacetamide at pH 6.5 (Example 9); assay type: biochemical; conditions: pH 6.5, 500 mM H2O2, 1 mg protease
# Method: as §1, with “potassium phosphate” for “sodium acetate/acetic acid”, “6.5),” for “4.0),”, “6.5)” for “4.0)”, “10).” for “7).”
# [4] = Protease-catalyzed perhydrolysis of acetamide at pH 4.0 (Example 6); assay type: biochemical; conditions: pH 4.0, 500 mM H2O2, 1 mg protease
# Method: as §1
# [5] = Protease-catalyzed perhydrolysis of triacetin at pH 6.5 (Example 8); assay type: biochemical; conditions: pH 6.5, 500 mM H2O2, 1 mg protease
# Method: The analytical procedure described by U. Karst et al. (Anal. Chem., 69 (17):3623-3627 (1997)) was employed, as described herein, for analysis of product mixtures containing peracid and hydrogen peroxide. Briefly, the concentration of peracetic acid (PAA) in analyzed samples ranged from 0.025 mM-10 mM, and the concentration of H2O2 ranged from 0.075 mM-3 mM. Reaction mixtures containing peracid and/or hydrogen peroxide were, if necessary prior to analysis, diluted to produce a concentration of peracid or peroxide in these ranges. Into a 4-mL vial was placed 0.100 mL of 20 mM methyl p-tolyl sulfide (MTS) in acetonitrile, 0.300 mL of distilled and deionized water (dd) and 0.100 mL of sample solution (undiluted or diluted with dd water by a factor of up to 1:25 for analysis of peracid), or 0.100 mL of 20 mM MTS in acetonitrile and 0.390 mL of dd water were added to 0.010 mL of a 1:10 dilution of sample solution (for analysis of hydrogen peroxide). After a reaction time of 10 minutes (in the dark, with no stirring), 0.400 mL CH3CN and 0.100 mL of 40-mM triphenylphosphine (TPP) in CH3CN were added to start the second derivatization reaction for detection of peroxide. The solution was left standing in the dark for 30 min to complete the assay reaction. At the end of 30 minutes, 0.100 mL of 10 mM N,N-diethyl-m-toluamide (DEET, HPLC external standard) was added and the resulting solution analyzed by HPLC: Supelco Discovery C8 10-cm column with pre-column, 10-μL injection, UV detection at 225 nm, solvent A: acetonitrile, solvent B: deionized water, 1 mL/min gradient as follows: […]
# Into a 4-mL glass vial with stir bar was added 1 mg protease (Table 6) in 0.050 mL of 50 mM sodium phosphate buffer (pH 6.5), 0.900 mL of an aqueous mixture containing triacetin (278 mM) in 50 mM phosphate buffer (pH 6.5), and 0.052 mL 30% hydrogen peroxide (500 mM final concentration). After stirring for 5 or 30 minutes at 22° C., a 0.250 mL sample was filtered using a 30,000 NMWL filter (Millipore UltraFree-MC) centrifuged for 2 minute at 12,000 RPM. A portion of the filtered reaction samples was diluted 1:10 with dd water and analyzed for hydrogen peroxide, and the remaining portion of the sample was directly analyzed for peracid using the HPLC assay method (Table 9).
# [6] = Protease-catalyzed perhydrolysis of triacetin at pH 4.0 (Example 7); assay type: biochemical; conditions: pH 4.0, 500 mM H2O2, 1 mg protease
# Method: as §1, with “triacetin” for “either a) acetamide (278 mM) in 50 mM sodium acetate/acetic acid buffer (pH 4.0) or b) diacetamide”, “8).” for “7).”
# [7] = test system: E. coli ATCC 11229; assay: Determination of Minimum Biocidal Concentration (MBC), XTT reduction inhibition (Example 21); assay type: cell-based; conditions: for replicate OD (450 nm): replicates 1-8
# Excerpt: The method described by J. Gabrielson, et al. (J. Microbiol. Methods 50: 63-73 (2002)) was employed for determination of the Minimum Biocidal Concentration (MBC) of peracids, or for determination of the MBC of hydrogen peroxide and enzyme substrates. The assay method is based on XTT reduction inhibition, where XTT ((2,3-bis[2-methoxy-4-nitro-5-sulfophenyl]-5-[(phenylamino)carbonyl]-2H-tetrazolium, inner salt, monosodium salt) is a redox dye that indicates microbial respiratory activity by a change in optical density (OD) measured at 490 nm or 450 nm. However, there are a variety of other methods available for testing the activity of disinfectants and antiseptics including, but not limited to viable plate counts, direct microscopic counts, dry weight, turbidity measurements, absorbance, and bioluminescence (see, for example Brock, Semour S., Disinfection, Sterilization, and Preservation, 5th edition, Lippincott Williams & Wilkins, Philadelphia, Pa., USA; 2001).
# The filtered enzyme-generated product mixture was diluted 1:5 with sterile water, and the resulting solution was further diluted with sterile water in four 1:1 serial dilutions to obtain the concentrations of PAA and hydrogen peroxide listed in Table 22.
# The 1:5 dilution and four serial dilutions were evaluated for biocidal activity by mixing 0.100 mL of the PAA-containing solution with 0.100 mL of an inoculum containing 2.7×10^6 CFU/mL of E. coli ATCC 11229 (American Type Culture Collection, Manassas, Va.) in Millers LB broth diluted with Butterfield Buffer; eight replicates of each mixture were contained in individual wells of a sterile 96-well microtiter plate. After the resulting cell suspensions were allowed to stand for 10 minutes at room temperature, they were tested for viability using the growth indicator XTT (2,3-bis[2-methoxy-4-nitro-5-sulfophenyl]-5-[(phenylamino)carbonyl]-2H-tetrazolium, inner salt, monosodium salt; CAS RN 111072-31-2) according to the method of Gabrielson et al. (J. Microbiol. Methods, 50:63-73 (2002)).
# Separately, the cell inoculum was treated with sterile solutions of triacetin (Table 24) or hydrogen peroxide in 50 mM phosphate buffer (pH 6.5) (Table 25) at the concentrations present in each of the biocide dilutions in Table 23 to determine the MBC for these components of the biocide solution.
compound,measurement,setting,value
Bromelain,"diacetamide (250 mM) peracetic acid (ppm), 5 min",[1]; 5 min,92 ppm
same,"diacetamide (250 mM) peracetic acid (ppm), 30 min",[1]; 30 min,130 ppm
same,"acetamide (250 mM) peracetic acid (ppm), 5 min",[2]; 5 min,108 ppm
same,"acetamide (250 mM) peracetic acid (ppm), 30 min",[2]; 30 min,112 ppm
same,"diacetamide (250 mM) peracetic acid (ppm), 5 min",[3]; 5 min,311 ppm
same,"diacetamide (250 mM) peracetic acid (ppm), 30 min",[3]; 30 min,202 ppm
same,"acetamide (250 mM) peracetic acid (ppm), 5 min",[4]; 5 min,57 ppm
same,"acetamide (250 mM) peracetic acid (ppm), 30 min",[4]; 30 min,63 ppm
same,"triacetin (250 mM) peracetic acid (ppm), 5 min",[5]; 5 min,161 ppm
same,"triacetin (250 mM) peracetic acid (ppm), 30 min",[5]; 30 min,170 ppm
same,"triacetin (250 mM) peracetic acid (ppm), 5 min",[6]; 5 min,83 ppm
same,"triacetin (250 mM) peracetic acid (ppm), 30 min",[6]; 30 min,59 ppm
CC(=O)OCC(COC(C)=O)OC(C)=O [triacetin],biocidal effect,[7]; highest concentration examined (5455 ppm),no biocidal effect
same,blank-corrected mean OD,[7]; triacetin 341 ppm,2.156
same,mean replicate OD (450 nm),[7]; triacetin 341 ppm,2.571
same,replicate OD (450 nm),[7]; triacetin 341 ppm,2.568 and 2.563 and 2.601 and 2.58 and 3.148 and 2.408 and 2.507 and 2.189
same,blank-corrected mean OD,[7]; triacetin 682 ppm,1.956
same,mean replicate OD (450 nm),[7]; triacetin 682 ppm,2.371
same,replicate OD (450 nm),[7]; triacetin 682 ppm,2.304 and 2.310 and 2.560 and 2.601 and 2.605 and 2.213 and 2.156 and 2.218
same,blank-corrected mean OD,[7]; triacetin 1364 ppm,1.978
same,mean replicate OD (450 nm),[7]; triacetin 1364 ppm,2.393
same,replicate OD (450 nm),[7]; triacetin 1364 ppm,2.140 and 2.266 and 2.485 and 2.632 and 2.823 and 2.337 and 2.265 and 2.198
same,blank-corrected mean OD,[7]; triacetin 2728 ppm,1.913
same,mean replicate OD (450 nm),[7]; triacetin 2728 ppm,2.328
same,replicate OD (450 nm),[7]; triacetin 2728 ppm,2.273 and 2.167 and 2.358 and 2.454 and 2.663 and 2.280 and 2.208 and 2.222
same,blank-corrected mean OD,[7]; triacetin 5455 ppm,1.835
same,mean replicate OD (450 nm),[7]; triacetin 5455 ppm,2.250
same,replicate OD (450 nm),[7]; triacetin 5455 ppm,2.229 and 2.124 and 2.263 and 2.407 and 2.539 and 2.210 and 2.136 and 2.091
CC(=O)OO [peracetic acid],Minimum Biocidal Concentration (MBC),"[7]; E. coli ATCC 11229, 1.35×10^6 CFU/mL, 10 minutes at room temperature, XTT, six-log kill, listed as PAA",> 2.4 ppm
same,MBC,"[7]; Escherichia coli, ATCC11229, 10 min, read-out: Minimum Biocidal Concentration (MBC), E. coli ATCC 11229, 1.35×10^6 CFU/mL, 10 minutes at room temperature, XTT, six-log kill",2.4 µg/mL
same,blank-corrected mean OD,"[7]; PAA 1.2 ppm, H2O2 40.2 ppm",0.203
same,mean replicate OD (450 nm),"[7]; PAA 1.2 ppm, H2O2 40.2 ppm",0.617
same,replicate OD (450 nm),"[7]; PAA 1.2 ppm, H2O2 40.2 ppm",0.674 and 0.635 and 0.658 and 0.625 and 0.639 and 0.520 and 0.496 and 0.692
same,blank-corrected mean OD,"[7]; PAA 2.4 ppm, H2O2 80.4 ppm",0.007
same,mean replicate OD (450 nm),"[7]; PAA 2.4 ppm, H2O2 80.4 ppm",0.421
same,replicate OD (450 nm),"[7]; PAA 2.4 ppm, H2O2 80.4 ppm",0.400 and 0.397 and 0.403 and 0.401 and 0.409 and 0.407 and 0.543 and 0.406
same,blank-corrected mean OD,"[7]; PAA 4.8 ppm, H2O2 160.8 ppm",−0.005
same,mean replicate OD (450 nm),"[7]; PAA 4.8 ppm, H2O2 160.8 ppm",0.409
same,replicate OD (450 nm),"[7]; PAA 4.8 ppm, H2O2 160.8 ppm",0.393 and 0.388 and 0.399 and 0.398 and 0.404 and 0.401 and 0.471 and 0.418
same,blank-corrected mean OD,"[7]; PAA 9.6 ppm, H2O2 321.6 ppm",−0.009
same,mean replicate OD (450 nm),"[7]; PAA 9.6 ppm, H2O2 321.6 ppm",0.405
same,replicate OD (450 nm),"[7]; PAA 9.6 ppm, H2O2 321.6 ppm",0.398 and 0.392 and 0.395 and 0.404 and 0.409 and 0.394 and 0.422 and 0.427
same,blank-corrected mean OD,"[7]; PAA 19.15 ppm, H2O2 643.1 ppm",−0.029
same,mean replicate OD (450 nm),"[7]; PAA 19.15 ppm, H2O2 643.1 ppm",0.388
same,replicate OD (450 nm),"[7]; PAA 19.15 ppm, H2O2 643.1 ppm",0.383 and 0.379 and 0.387 and 0.381 and 0.382 (2×) and 0.403 (2×)
